Residues, ends and D or L forms follow the SMILES beside them. *: point of attachment. Cbz = O=C(OCc1ccccc1)*; CH2F = FC*
How the values were obtained:
[1] = system: NSO myeloma cells; settings: overexpression in NSO myeloma cells; Murray et al. 1996; cited from earlier work
[2] = system: different cell lines; settings: under cell-culture conditions; other investigators; cited from earlier work
[3] = system: caspase-3; experiment: caspase-3 activity in CHO culture treated with z-VAD-fmk; assay type: cell-based, Chinese hamster; settings: z-VAD-fmk added to the culture at 100 uM, from 48 hours, every 24 hours
Protocol: (§1) FIGS. 9-10 show assay results of CHO cells seeded in 60 mm dishes and exposed to caspase inhibitor, z-VAD-fmk (added to the cell culture at 100 micromolar concentration, 48 hours after seeding). The z-VAD-fmk inhibitor was added to the culture every 24 hours thereafter. Samples were taken every day and analyzed for caspase-3 activity (FIG. 9) and the % viable cells (FIG. 10).
(§2) CHO (dhfr+) cells grown in suspension were seeded at 1 million cells/ml in 60 mm tissue culture dishes. The cell culture media was a serum-free DMEM/Ham F-12 based medium containing recombinant human insulin and trace elements. Viability of the culture on day 0 was 96%. Two plates were analyzed each day for viability by Trypan Blue exclusion and by annexin/PI binding (Clontech) and for viable cell density. The experiment was carried out for 10 days. A chemical inhibitor of caspases, z-VAD-fmk (Enzyme Systems Products) was dissolved in DMSO to make a 100 mM (1000×) stock and 4 ul was added to a 60 mm dish containing 4 ml of culture. The inhibitor was added 48 hours after the start of the experiment (prior to the onset of apoptosis) and a new aliquot of the z-VAD-fmk inhibitor was added every 24 hours. Controls were cultures without any addition and cultures with the addition of DMSO only.

[4] = system: CHO (dhfr+) cells; experiment: viability/apoptosis of CHO culture in 60 mm dishes with z-VAD-fmk (Trypan Blue exclusion, annexin/PI); assay type: cell-based, Chinese hamster
Protocol: as §1, §2

[5] = system: serum-free culture of CHO cells; settings: Goswami et al. 1999; cited from earlier work
[6] = system: CHO (dhfr+) cells; experiment: effect of p35 expression on viability in 2 liter bioreactors; assay type: cell-based, Chinese hamster; settings: p35 expressed in CHO cells vs cpc vector control, 2 liter bioreactor

## bcl-2: anti-apoptotic gene overexpressed in cultured cells
[1]
  decline phase characteristics of the cultured cells: failed to affect the decline phase characteristics
[2]
  prevention of cell death: can be effective in preventing different cell lines from death

## COC(=O)C[C@H](NC(=O)[C@H](C)NC(=O)[C@@H](NC(=O)OCc1ccccc1)C(C)C)C(=O)CF [z-VAD-fmk] (Cbz-Val-Ala-Asp(OMe)-CH2F)
[3]
  caspase-3 activity: inhibition of caspase-3 activity
[4]; added at a concentration of about 100 micromolar
  apoptosis in cell cultures: can inhibit apoptosis
[4]; z-VAD-fmk added to the culture at 100 uM, from 48 hours, every 24 hours
  cell viability: prolongation of cell viability
[5]
  life of the culture: unable to substantially extend the life

B1: baculovirus p35: apoptosis inhibitor, baculovirus p35, expressed in CHO cells from p35/CPC construct (protein, UniProt P08160 1-299, looked up)
Early 35 kDa protein: MCVIFPVEIDVSQTIIRDCQVDKQTRELVYINKIMNTQLTKPVLMMFNISGPIRSVTRKNNNLRDRIKSKVDEQFDQLERDYSDQMDGFHDSIKYFKDEHYSVSCQNGSVLKSKFAKILKSHDYTDKKSIEAYEKYCLPKLVDERNDYYVAVCVLKPGFENGSNQVLSFEYNPIGNKVIVPFAHEINDTGLYEYDVVAYVDSVQFDGEQFEEFVQSLILPSSFKNSEKVLYYNEASKNKSMIYKALEFTTESSWGKSEKYNWKIFCNGFIYDKKSKVLYVKLHNVTSALNKNVILNTIK
[6]
  viability in the bioreactor: prolongation of viability
